The target of assay [1] is Neprilysin (Homo sapiens, UniProt P08473). Description: Inhibition of human recombinant NEP ectopeptidase activity using Abz-dRGL-(EDDnp) as substrate preincubated for 10 mins with substrate by fluorimetric analysis.
For assay [2], the target named is Aminopeptidase N (Homo sapiens, UniProt P15144). Nature of the assay: Inhibition of human recombinant AP-N ectopeptidase activity using alanine-MCA as substrate preincubated for 10 mins with substrate by fluorimetric analysis.
Chain of Aminopeptidase N (P15144 whole entry): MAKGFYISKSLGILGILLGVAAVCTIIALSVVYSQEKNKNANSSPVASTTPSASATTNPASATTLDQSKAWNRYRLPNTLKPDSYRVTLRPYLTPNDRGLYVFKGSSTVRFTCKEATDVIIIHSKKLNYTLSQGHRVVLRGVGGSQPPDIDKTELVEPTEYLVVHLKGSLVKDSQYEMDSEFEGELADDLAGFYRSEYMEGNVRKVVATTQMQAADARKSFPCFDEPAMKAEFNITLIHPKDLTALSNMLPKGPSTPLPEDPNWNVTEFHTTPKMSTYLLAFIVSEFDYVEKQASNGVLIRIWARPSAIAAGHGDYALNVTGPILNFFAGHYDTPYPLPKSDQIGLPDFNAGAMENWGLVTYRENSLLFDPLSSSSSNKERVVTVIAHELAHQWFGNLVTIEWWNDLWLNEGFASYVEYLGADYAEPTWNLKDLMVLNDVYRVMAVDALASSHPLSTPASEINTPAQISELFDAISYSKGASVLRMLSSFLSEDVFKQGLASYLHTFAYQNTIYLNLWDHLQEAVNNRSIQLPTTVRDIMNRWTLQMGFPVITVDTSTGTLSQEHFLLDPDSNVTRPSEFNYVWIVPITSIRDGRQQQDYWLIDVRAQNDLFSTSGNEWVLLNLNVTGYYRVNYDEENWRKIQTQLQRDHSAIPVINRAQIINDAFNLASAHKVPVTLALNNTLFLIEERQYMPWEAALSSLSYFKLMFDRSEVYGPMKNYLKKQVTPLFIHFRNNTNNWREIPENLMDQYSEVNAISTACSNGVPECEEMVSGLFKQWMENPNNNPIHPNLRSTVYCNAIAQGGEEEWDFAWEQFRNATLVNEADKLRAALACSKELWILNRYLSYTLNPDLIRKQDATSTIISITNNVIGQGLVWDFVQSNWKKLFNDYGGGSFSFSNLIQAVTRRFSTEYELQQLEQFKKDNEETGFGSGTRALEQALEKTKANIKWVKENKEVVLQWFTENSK

Numbered stars: 1 amine (or outer) side, 2 acyl side, 3 side chain; on linkers, the order of the positions; unused ones are H or OH. Square brackets hold non-standard residues; d marks the D form. Peptide text beside a SMILES is read from it. β3hPhg = O=C(C[C@@H](N[*:1])c1ccccc1)[*:2]; Phg = N[C@H](C(=O)O)c1ccccc1

Chain of Neprilysin (P08473 whole entry): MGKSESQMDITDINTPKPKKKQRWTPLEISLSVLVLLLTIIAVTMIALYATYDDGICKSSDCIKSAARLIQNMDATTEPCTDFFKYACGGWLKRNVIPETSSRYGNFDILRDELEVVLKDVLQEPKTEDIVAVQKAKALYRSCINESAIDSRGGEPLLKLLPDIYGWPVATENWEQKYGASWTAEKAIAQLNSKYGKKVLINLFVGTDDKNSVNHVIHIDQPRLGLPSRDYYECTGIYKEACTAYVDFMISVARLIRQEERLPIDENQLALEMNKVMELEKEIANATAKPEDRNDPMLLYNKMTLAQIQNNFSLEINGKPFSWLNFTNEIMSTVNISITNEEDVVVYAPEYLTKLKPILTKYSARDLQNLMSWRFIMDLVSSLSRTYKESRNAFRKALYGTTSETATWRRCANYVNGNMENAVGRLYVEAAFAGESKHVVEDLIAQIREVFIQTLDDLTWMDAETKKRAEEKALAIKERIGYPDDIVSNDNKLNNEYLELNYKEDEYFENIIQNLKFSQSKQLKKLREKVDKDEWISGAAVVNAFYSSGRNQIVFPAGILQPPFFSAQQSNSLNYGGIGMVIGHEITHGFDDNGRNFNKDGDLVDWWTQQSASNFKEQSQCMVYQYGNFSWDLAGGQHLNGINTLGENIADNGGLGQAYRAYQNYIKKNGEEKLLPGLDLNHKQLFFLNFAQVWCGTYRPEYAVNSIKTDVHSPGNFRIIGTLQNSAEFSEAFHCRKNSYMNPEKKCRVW

Take `N=C(N)NCCC[C@H](NC(=O)[C@H](CO)NC(=O)[C@@H](NC(=O)[C@H](CCCNC(=N)N)NC(=O)[C@@H](N)CCC(N)=O)c1ccccc1)C(=O)O` (H-QR[Phg]SR-OH): the IC50 in assay [1] was above 100 µM. In the case of `NC(=O)CC[C@H](N)C(=O)N[C@@H](CCCN=C(N)N)C(=O)N[C@H](CC(=O)N[C@@H](CO)C(=O)N[C@@H](CCCN=C(N)N)C(=O)O)c1ccccc1` (H-QR[β3hPhg]SR-OH), the half-inhibitory concentration (IC50) in assay [1] was above 100 µM; in assay [2] it was above 70 µM.

As to H-ARFSR-OH, in assay [1], the half-inhibitory concentration (IC50) is above 70 µM.

For the compound H-QRASR-OH, the values for the IC50 in assay [1] and in assay [2] were above 100 µM and above 70 µM, respectively. For H-QRFSA-OH, in assay [2], the IC50 is above 70 µM.

The record behind these values is ChEMBL document CHEMBL2021861, “Structure-activity relationship study of opiorphin, a human dual ectopeptidase inhibitor with antinociceptive properties” (J Med Chem, 2012).
